According to patent EP0500953B1, “ANTINEOPLASTIC EFFECT POTENTIATOR AND ANTINEOPLASTIC AGENT” (TAIHO PHARMACEUTICAL COMPANY LIMITED, priority 1990, dated 1992):

What was measured:
[1] = tested on: mouse colon cancer line COLON 26; assay: Tumor growth inhibition, subdermally transplanted COLON 26 tumor fragment in mice (Example 1); type: in vivo; details: Dosage 20.0 mg/kg, orally once a day for 9 consecutive days, tumor weight on day 12
Method: (§1) A 2 mm-diameter fragment of mouse colon cancer line COLON 26 was subdermally transplanted at the back of male CDF1 mice. Beginning 24 hours after transplantation of the tumor fragment, a solution or suspension of tegafur-uracil combination drug, 5-fluorouracil and calcium folinate, the amounts of which are indicated below in Table 1, in 0.5% sodium calboxymethylcellulose (CMC) solution was administered orally once a day for 9 consecutive days. On day 12 after transplantation of the tumor fragment, the tumor was enucleated and weighed. From the ratio of the mean tumor weight in each treatment group to that in the control group, the tumor growth inhibition rate was calculated. On the other hand, the body weight of mice on the day of tumor fragment transplantation was subtracted from the body weight of mice exclusive of tumors on day 12 after transplantation and the difference was used as the index of drug-induced systemic toxicity. Furthermore, the stools passed by mice in each treatment group were examined daily and, in accordance with the method described in Japanese Journal of Cancer Research Vol. 81, 188-195 (1990), the stool property was rated on the following scale: -: normal stool (hard pellets with little moisture), ±: loose stool (normal form, moist and soft), +: loose stool (undefinable form, very moist and soft), ++: diarrheal stool (formless, watery).

[2] = Body weight change as index of drug-induced systemic toxicity, COLON 26-bearing mice (Example 1); type: in vivo, male CDF1 mice; details: Dosage 20.0 mg/kg, orally once a day for 9 days, day 12 vs day of transplantation
Method: as §1

[3] = Stool property rating (digestive organ toxicity), COLON 26-bearing mice (Example 1); type: in vivo, male CDF1 mice; parameters: key: -: normal stool (hard pellets with little moisture); ±: loose stool (normal form, moist and soft); +: loose stool (undefinable form, very moist and soft); ++: diarrheal stool (formless, watery); details: Dosage 20.0 mg/kg, orally once a day for 9 days
Method: as §1

Structure (SMILES): O=c1[nH]cc(F)c(=O)[nH]1 [5-Fluorouracil, 5-fluorouracil]
- Tumor Growth inhibition rate (%) ([1]; Folinic acid 0 mg/kg): 43%
- Tumor Growth inhibition rate (%) ([1]; Folinic acid 100 mg/kg): 56%
- Change in body weight (g) ([2]; Folinic acid 0 mg/kg): +1.7 g
- Change in body weight (g) ([2]; Folinic acid 100 mg/kg): +0.1 g
- Stool property ([3]; Folinic acid 0 mg/kg): ±
- Stool property ([3]; Folinic acid 100 mg/kg): ++
